These results are taken from US8692023B2, “Sugar metabolism improving composition, and pharmaceutical preparation containing said composition” (Erina Co., Inc., priority 2010, dated 2014).

Series [1] relates to db/db diabetes model mouse. The series is described as follows: HOMA-IR insulin resistance index in diabetes model mice. Type of series: in vivo. The note with it: groups A and B (2 and 10 mg/kg/day) versus group C. The procedure:
(§1) After the termination of the experiment shown in EXAMPLE 4, the blood samples were obtained from the abdominal aorta of the mice from each group under anesthesia, and they were centrifuged with 1,000×g at room temperature to obtain serum samples. After that, the mice of each group were killed by cervical dislocation to put out of the misery; then organs were excised to use the following experiments.
Serum insulin level of Lewi's insulin-mouse-T (Shibayagi Co., Ltd.) was determined by ELISA (measurement at the wavelengths of 450 nm and 620 nm), according to protocols written in its package insert.
HOMA-IR (Homeostasis model assessment-Insulin Resistance), which is an index of the insulin resistance, was calculated based on data on both blood glucose and serum insulin, by using following equation. HOMA-IR=(blood glucose×insulin level)/405 (1)
HOMA-IR values were obtained from both levels of serum blood glucose and serum insulin of the mice in group N (the normal mice), the administration groups A, B, and C. They were used to investigate for the change of the insulin resistant index.

For series [2], the system named is db/db diabetes model mouse. The series is described as follows: Intraperitoneal glucose tolerance test (IPGTT) in diabetes model mice. Type of series: in vivo. On the procedure: Effect on glucose tolerance by nepodin administration was measured by using blood glucose level change after the intraperitoneal administration of nepodin to the diabetes model mice.
Intraperitoneal glucose tolerance test (IPGTT) was performed on the sixth week after nepodin administration start. At first, the mice of each group were fasted for 16 hours, and then, glucose was intraperitoneally administrated to each mouse at the dose of 2 g/kg.
Blood samples were obtained from the tail vain of each mouse at the time point of 0 min., 30 min., 60 min., 90 min., 120 min., and 180 min. after the glucose administration. Blood glucose level was determined by using Glucose CII Test Wako (Wako Pure Chemical Industries, Ltd.)

For series [3], the system named is db/db diabetes model mouse. The series is described as follows: Liver and serum neutral lipid and cholesterol levels in diabetes model mice. Type of series: in vivo.
Text: as §1
Livers from the mice of each group were homogenized and total lipid was extracted by using Folch method. Both amounts of neutral lipid and cholesterol in the liver were determined by using LabAssat Tiglyceride (Wako Pure Chemical Industries, Ltd.) and LabAssay Cholesterol (Wako Pure Chemical Industries, Ltd.) Results are shown in FIGS. 7A and 7B.
The serum neutral lipid (triglyceride) level was determined by using LabAssay Triglyceride (Wako Pure Chemical Industries, Ltd.). The serum cholesterol level was determined by using LabAssay Cholesterol (Wako Pure Chemical Industries, Ltd.).

In series [4] the test system is AMPK (5′ adenosine monophosphate-activated protein kinase). Nature of the series: Phosphorylated AMPK in L6 myotube cells by western blotting. Type of series: cell-based, rat. As to conditions: nepodin 30 μM, up to 120 minutes. On the procedure: The effect of nepodin administration was decided by determining the amount of a phospholylated AMPK (5′ adenosine monophosphate-activated protein kinase), which was important for glucose metabolism in L6 myotube cells, as an activation index.
L6 myoblast cells were suspended in D-MEM (5.5 mM of glucose concentration) supplemented with 10% v/v fetal bovine serum, 100 μg/mL of streptomycin, and 100 U/mL of penicillin G so as to become the cell concentration at 12.5×10^4 cells/well.
L6 myoblast cells were inoculated into a 6 cm diameter dish (FALCON Co., Inc.) (2 mL/well) so as to become the concentration at 5×10^5 cells/well, and cultured in the 5% CO2 incubator at 37° C. for 11 days. The medium was exchanged every 3 days. […]
The negative control samples were prepared by using the cytolytic buffer to be added to the cells cultured with the medium including DMSO, the solvent of nepodin, at the same amount as nepodin. The negative control sample and the samples were separated by using SDS-PAGE according to the conventional method, and were analyzed by using anti-phosphorylated AMPK antibody and anti-AMPK antibody by the western blotting.

The subject of series [5] is db/db diabetes model mouse. The series is described as follows: Serum TBARS value (anti-oxidizing action) in diabetes model mice. Type of series: in vivo. The note with it: groups A and B versus group C. On the procedure:
as §1
TBARS value, an index for anti-oxidizing action, was determined by using a TBARS Assay Kit (ZeptoMetrix Co., Inc.).

The test system of series [6] is db/db diabetes model mouse. The series is described as follows: Fasting blood glucose of diabetes model mice. Type of series: in vivo. The note with it: 4 hour fasting, 2 to 4 weeks after administration start, versus no nepodin. The procedure:
Effect of nepodin was evaluated by using fasting blood glucose of model mice (db/db mouse) having diabetes II as an index.
Nepodin was suspended in 0.5% carboxymethylcellulose aqueous solution (Wako Pure Chemical Industries, Ltd.). Male mice of 5 week old, BKS. Cg-+Lerp^db/+Lerp^db/J mouse (db/db diabetes model mouse, hereinafter, it is referred to as “diabetes model mouse”) for a test group (nepodin administration group) were purchased from Charles River Laboratories Japan Inc. Prior to the test, they were maintained for 1 week under the condition of 12 h light/12 h dark at a room temperature approximately 25° C., feeding normal diet. It is considered that db/db mouse also becomes a model for a metabolic syndrome model, because it is obese and has higher levels of variety of lipid.
Heterozygous male mice of 5 week old, BKS. Cg-+Dock 7^m/+Lerp^db/J mouse (normal mouse) for a negative control group (without nepodin administration) were purchased from Charles River Japan Inc. Prior to the test, they were maintained as the same condition as those of the test group. […]
Blood samples were obtained from the tail vein of the mice after 4 hour fasting per week. The blood glucose level was measured by using Glucose CII test Wako (Wako Pure Chemical Industries, Ltd.)

In another series the test system is L6 myotube cells. The series is described as follows: Glucose intake by L6 myotube cells (decrease of glucose in culture solution). The series is classed as cell-based, rat. The note with it: nepodin 10 to 40 μM, 4 hours, versus medium without nepodin. On the procedure: L6 myoblast cells were suspended at concentration of 12.5×10^4 cells/mL in a D-MEM medium with 5.5 mM of glucose concentration to which 10% v/v fetal bovine serum, 100 μg/mL of streptomycin, and 100 U/mL of penicillin G were added.
The cells were inoculated at the concentration 5×10^4 cells/well (0.4 mL/well) in 24 well multi-plate (NUNC Co., Inc.); then cultured in a 5% CO2 incubator at 37° C. for 11 days. The medium was exchanged every 3 days.
After 11 days, the culture medium was replaced with filter sterilized Krebs solution (Krebs-Henseleit buffer; pH 7.4, 141 mg/L of MgSO4, […] of KH2PO4, 350 mg/L of KCL, 6,900 mg/L of NaCl, 373 mg/L of CaCl2.2H2O, and 2,100 mg/L of NaHCO3) (KHH buffer) supplemented with 0.1% bovine serum albumin, 10 mM of Hepes, and […] of pyruvate sodium but without glucose to maintain the cells in the 5% CO2 incubator at 37° C. for 2 hours.
Next, each KHH buffer was prepared: only 11 mM glucose was added, or 11 mM of glucose and nepodin (10 μM, 20 μM, or 40 μM). […]
Glucose concentrations in the culture solution at the beginning and after 4 hours from the culture start were determined by using a microplate reader (Beckman Coulter, Inc. AD200) and a glucose determination kit (Glucose CII test Wako (Wako Pure Chemical Industries, Ltd.), Catalog number 439-90901). […]

Series [7] is described as follows: Feed intake and body weight gain of diabetes model mice. The series is classed as in vivo, mouse. The note with it: for Weight gain / Feed intake: diabetes mice. On the procedure: Nepodin was suspended in 0.5% carboxymethylcellulose aqueous solution (Wako Pure Chemical Industries, Ltd.). Male mice of 5 week old, BKS. Cg-+Lerp^db/+Lerp^db/J mouse (db/db diabetes model mouse, hereinafter, it is referred to as “diabetes model mouse”) for a test group (nepodin administration group) were purchased from Charles River Laboratories Japan Inc. Prior to the test, they were maintained for 1 week under the condition of 12 h light/12 h dark at a room temperature approximately 25° C., feeding normal diet. It is considered that db/db mouse also becomes a model for a metabolic syndrome model, because it is obese and has higher levels of variety of lipid. The test group mice were divided into 3 groups: C group (positive control group; n=10) with no nepodin administration; A group (n=6) to which nepodin was administered at the dose of 2 mg/kg/day or 10 mg/kg/day for 5 weeks; and B group (n=6). 0.5% carboxymethylcellulose aqueous solution without nepodin was administered to the negative control group (N group; n=6) and the positive control group (C group) under the same conditions as described above. Feeds and water are freely given to each group.

[8] abbreviates: nepodin administration groups versus diabetes model group with no administration.

Structures are written as SMILES.

On to `CC(=O)c1c(C)cc2cccc(O)c2c1O` [nepodin, 2-Acetyl-1,8-dihydroxy-3-methyl-napthalene], for which, in series [1], the HOMA-IR result is given as “significantly lower”. Besides, the “area under the curve (AUC) of blood glucose levels” value in series [2] (B group (10 mg/kg), AUC of C group = 100%, p<0.01) is on record as “significantly low”. Also, the “increase of the blood glucose level after glucose load” value in series [2] (B group, 10 mg/kg nepodin, sixth week, glucose 2 g/kg i.p. after 16 hours fasting) is “significantly suppressed”. Besides, in series [3] (groups A and B versus group C), the “cholesterol level in the liver” value is recorded as “significantly lower” and the “neutral lipid level in the liver” value is “significantly lower”. In series [3] (setting [8]), the serum cholesterol level entry is “significantly lower” and the “serum neutral lipid (triglyceride) level” value is given as “significantly lower”. In series [4], the “Phosphorylated AMPK in L6 myotube cells” value is recorded as “increased”. For the same molecule, the “serum TBARS value” in series [5] was “significantly lower”. For the same molecule, in series [6], the “fasting blood glucose level” value was “significantly lower”. In the series on L6 myotube cells, the “glucose intake by L6 myotube cells” value is on record as “dose-dependently improved”. In series [7] (group A, nepodin 2 mg/kg/day), this molecule registered a Weight gain of 18.7 ± 1.76 g/5 weeks. In series [7] (group A, nepodin 2 mg/kg/day for 5 weeks), this molecule showed a Feed intake of 5.26 ± 0.61 g/day. This molecule also yielded a Weight gain in series [7] (group B, nepodin 10 mg/kg/day) of 19.45 ± 2.68 g/5 weeks. The Feed intake in series [7] (group B, nepodin 10 mg/kg/day for 5 weeks) was 5.40 ± 0.50 g/day. Moreover, the “average amount of feed intake and body weight gain versus C group” value in series [7] (diabetes model mice, A group and B group (2 or 10 mg/kg/day) versus no nepodin) is “no significant difference”.
